Where two headings read alike, the source gives them in different places.
How the values were obtained:
[1] = system: SCD1; experiment: Measurement of SCD1 expression in SZ95-SCD1-HiBit cells (HiBiT assay); assay type: cell-based; conditions: Homo sapiens, 48 h; for EC50: SCD1 protein production, luminescence, initial dilution 1:3 in DMSO, read-out: HiBit EC50
From the text: Measurement of SCD1 Expression in SZ95-SCD1-HiBit Cells
SCD1 expression levels in SZ95 cells were quantitated using the HiBiT system (Promega) in which a small peptide sequence (SmBiT) with a larger protein (LgBiT) reconstitutes luciferase activity and can generate a luminescent signal used for quantitation. SZ95-SCD1-HiBit cells were generated by editing the SCD1 gene of SZ95 cells resulting in the addition of an 8 amino acid linker sequence (gssggssg, SEQ ID NO:1) followed by an 11-amino acid SmBiT sequence (vsgwrlfkkis, SEQ ID NO:2) at the carboxy-terminus of the SCD1 protein. The gRNA targeting sequence used was […] (SEQ ID NO: 3) and the SCD1 insertion oligonucleotide encoding the SmBiT sequence was:
SZ95-SCD1-HiBit cells were seeded in 384-well cell culture white plates at a density of 3000 cells/30 μl. Water was added to edge wells to avoid evaporation. Cells were incubated in a humidified incubator with 5% CO2 at 37° C. overnight. Tested compounds were diluted at a ratio of 1:3 in DMSO using an Agilent BRAVO Automated Liquid Handling Platform and, after further serial dilutions, added to cells at final concentrations starting from 18 μM. 2-(3-(3-((2-chloro-3-(trifluoromethyl)benzyl)(2,2-diphenylethyl)amino)propoxy)phenyl)acetic acid was used as a reference compound in each plate. Cells in the assay plate were incubated in a humidified incubator with 5% CO2 at 37° C. for 48 h.
The assay plates were removed from the incubator and allowed to equilibrate to room temperature. Nano-Glo® HiBiT Detection Reagent (Promega; a mixture of Nano-Glo HiBiT Detection Buffer, Nano-Glo HiBiT Detection Substrate, and LgBiT protein, according to the manufacturer's instructions) was added into assay plates, at a volume equal to cell culture medium in each well. Plates were placed on an orbital shaker at a speed of 300-600 rpm for 10 min at room temperature, and read on an EnVision Plate Reader using luminescence detection with a 1 second read time.
The assay measures the increase in SCD1 protein production in vitro. Amax refers to the percent EC50 of the tested compound compared to a reference compound, 2-(3-(3-((2-chloro-3-(trifluoromethyl)benzyl)(2,2-diphenylethyl)amino)propoxy)phenyl)acetic acid.

[2] = system: SZ95 sebocytes; experiment: Sentinel Lipid Assay (SLA), desaturation index in SZ95 sebocytes; assay type: cell-based; conditions: Homo sapiens, 72 h; for EC50: desaturation index, lowest dose used 4.6 nM, read-out: SLA EC50
Procedure: Sentinel Lipid Assay (SLA)
The sentinel lipid assay was used quantify the change in the global desaturation index in SZ95 sebocytes upon administration of certain LXR agonist compounds provided herein. The assay measures a smaller subset of lipid analytes in meibum (termed “sentinel lipids”) which would model the global changes the population of both saturated and desaturated lipids in the cells. In order to define this smaller subset of lipids, a complete lipid profile was recorded on dose response curves (eight levels from 4 nM to 10 uM) of Compounds 1-72. An elastic net regression model was applied separately to both the saturated and desaturated lipids to determine the minimum combination of coefficients and analytes, which could be used to adequately model the total population of lipids. The elastic net model was able to reduce the behavior of 425 lipids to 11 lipids and the correlation between the desaturation indices observed using the complete set of lipids with from the 11 sentinel lipids was 0.96.
A medium throughput assay was created using this reduced set of sentinel lipids. A single batch is defined as triplicate examples of three unique plates (i.e., a single batch of cells is used to create nine plates for LC-MSMS analysis). Lipids were extracted from the cells using a 1:1 mixture of methylene chloride/methanol containing 10 nM of deuterated standards of triglycerides, which are used as internal standards for quantitating the lipid abundance. The lipids were separated prior to mass spectrometric analysis using a five minute HPLC gradient. The abundance of the sentinel lipids and the internal standards are measured using multiple reaction monitor mode (MRM) on a triple quadrupole mass spectrometer. The data was transformed from total ion current to nmoles/10^6 cells, which are multiplied by the coefficients from the elastic net model to determine the effective desaturated and saturated content, and therein the desaturation index of the dosed cells. In order to compare compounds from multiple batches with one another, the measure raw desaturation index was normalized by dividing it by the desaturation index of the DMSO dosed cells, and all data was assessed as the fraction by which the compound increases the desaturation index above 1.
SZ95 (immortalized human sebaceous gland cells) cells were seeded in Greiner bio-one 96-well polypropylene plates that were pre-treated with 50 μg/mL Human Plasma Fibronectin (Thermo Fisher Scientific) at a density of 10^4 cells/135 μl. Cells were incubated in a humidified incubator with 5% CO2 at 37° C. overnight. Test compounds were diluted at a ratio of 1:3 and added to cells at final concentrations starting from 10 μM. 2-(3-(3-((2-chloro-3-(trifluoromethyl)benzyl)(2,2-diphenylethyl)amino)propoxy)phenyl)acetic acid was used as a positive control reference compound in each plate. Cells in the assay plate were incubated in a humidified incubator with 5% CO2 at 37° C. for 72 h.
Culture medium was removed from the cells and cells in culture plates were washed with ice cold phosphate buffered saline three times. Plates were heat sealed and stored in a −80° C. freezer prior to Sentinel lipid assay. The Amax value refers to the percent EC50 of the tested compound compared to a reference compound, 2-(3-(3-((2-chloro-3-(trifluoromethyl)benzyl)(2,2-diphenylethyl)amino)propoxy)phenyl)acetic acid.

[3] = normalized Amax based on the reference compound Amax of 100%, read-out: HiBit Normalized Amax
[4] = SZ95-SCD1-HiBit cells, compared to reference compound, read-out: HiBit Amax
[5] = normalized Amax based on the reference compound Amax of 100%, read-out: SLA Normalized Amax
[6] = SZ95 cells, compared to reference compound, read-out: SLA Amax

Row | SMILES | Emax [1, 3] [%] | EC50 ([1]; SZ95-SCD1-HiBit cells) [nM] | Emax [1, 4] [%] | Emax [2, 5] [%] | EC50 ([2]; SZ95 cells) [nM] | Emax [2, 6] [%]
1 | CC1(C)C(=O)N(Cc2nc(-c3ccc(OCC(C)(C(F)(F)F)C(F)(F)F)c(C(F)(F)F)c3)no2)C(=O)N1CCN1CCOCC1 [Compound 42, 5,5-dimethyl-1-(2-morpholinoethyl)-3-((3-(4-(3,3,3-trifluoro-2-methyl-2-(trifluoromethyl)propoxy)-3-(trifluoromethyl)phenyl)-1,2,4-oxadiazol-5-yl)methyl)imidazolidine-2,4-dione] | 86.1 | 1.52 | 81.9 | 157 | ≤ 4.6 | 150
2 | CC1(C)C(=O)N(Cc2nc(-c3ccc(OCCC(F)(F)F)c(C(F)(F)F)c3)no2)C(=O)N1CCN1CCOCC1 [Compound 66, 5,5-dimethyl-1-(2-morpholinoethyl)-3-((3-(3-(trifluoromethyl)-4-(3,3,3-trifluoropropoxy)phenyl)-1,2,4-oxadiazol-5-yl)methyl)imidazolidine-2,4-dione] | 82.3 | 187 | 78.2 | 99 | 21.1 | 95.1
3 | CC(C)CS(=O)(=O)c1ccccc1Oc1ccc(-c2noc(CN3C(=O)N(CCN4CCOCC4)C4(CCN(Cc5cc(O)cc(O)c5)CC4)C3=O)n2)cc1C(F)(F)F [Compound 21, 8-(3,5-dihydroxybenzyl)-3-((3-(4-(2-(isobutylsulfonyl)phenoxy)-3-(trifluoromethyl)phenyl)-1,2,4-oxadiazol-5-yl)methyl)-1-(2-morpholinoethyl)-1,3,8-triazaspiro[4.5]decane-2,4-dione] | 83.7 | 0.241 | 79.6 | 102 | ≤ 4.6 | 97.5
4 | CS(=O)(=O)c1ccccc1Oc1ccc(-c2noc(CN3C(=O)N(CCC4CCOCC4)C4(CCN(C5CCC5)CC4)C3=O)n2)cc1C(F)(F)F [Compound 17, 8-cyclobutyl-3-((3-(4-(2-(methylsulfonyl)phenoxy)-3-(trifluoromethyl)phenyl)-1,2,4-oxadiazol-5-yl)methyl)-1-(2-(tetrahydro-2H-pyran-4-yl)ethyl)-1,3,8-triazaspiro[4.5]decane-2,4-dione] | 200 | 0.041 | 190 | 102 | ≤ 4.6 | 97.4
5 | CC1(C)C(=O)N(Cc2nc(-c3ccc(Oc4ccccc4S(C)(=O)=O)c(C(F)(F)F)c3)no2)C(=O)N1CCN1CCOCC1 [Compound 55, 5,5-dimethyl-3-((3-(4-(2-(methylsulfonyl)phenoxy)-3-(trifluoromethyl)phenyl)-1,2,4-oxadiazol-5-yl)methyl)-1-(2-morpholinoethyl)imidazolidine-2,4-dione] | 91.6 | 4.43 | 87.1 | 161 | ≤ 4.6 | 154
6 | COCCS(=O)(=O)c1ccccc1Oc1ccc(-c2noc(CN3C(=O)N(CCN4CCOCC4)C(C)(C)C3=O)n2)cc1C(F)(F)F [Compound 58, 3-((3-(4-(2-((2-methoxyethyl)sulfonyl)phenoxy)-3-(trifluoromethyl)phenyl)-1,2,4-oxadiazol-5-yl)methyl)-5,5-dimethyl-1-(2-morpholinoethyl)imidazolidine-2,4-dione] | 107 | 0.281 | 102 | 167 | ≤ 4.6 | 161
7 | CC(C)CS(=O)(=O)c1ccccc1Oc1ccc(-c2noc(CN3C(=O)N(CCN4CCOCC4)C4(CCCCC4)C3=O)n2)cc1C(F)(F)F [Compound 3, 3-((3-(4-(2-(isobutylsulfonyl)phenoxy)-3-(trifluoromethyl)phenyl)-1,2,4-oxadiazol-5-yl)methyl)-1-(2-morpholinoethyl)-1,3-diazaspiro[4.5]decane-2,4-dione] | 78.5 | 1.24 | 74.7 | 117 | ≤ 4.6 | 112
